From ChEMBL document CHEMBL1147193, “New 5-substituted thiazolo[3,2-b][1,2,4]triazol-6-ones: synthesis and anticancer evaluation” (2007)

Tests used:
Assay type in all cases: functional
[1] = system: OVCAR-4; experiment: Growth inhibition of human OVCAR4 cells after 48 hrs by SRB protein assay; conditions: OVCAR-4, 48 h
[2] = system: OVCAR-5; experiment: Growth inhibition of human OVCAR5 cells after 48 hrs by SRB protein assay; conditions: OVCAR-5, 48 h
[3] = system: SK-OV-3; experiment: Growth inhibition of human SK-OV-3 cells after 48 hrs by SRB protein assay; conditions: SK-OV-3, 48 h
[4] = system: 786-0; experiment: Growth inhibition of human 786-0 cells after 48 hrs by SRB protein assay; conditions: 786-0, 48 h
[5] = system: ACHN; experiment: Growth inhibition of human ACHN cells after 48 hrs by SRB protein assay
[6] = system: A549; experiment: Growth inhibition of human A549/ATCC cells after 48 hrs by SRB protein assay; conditions: A549, 48 h
[7] = system: IGROV-1; experiment: Growth inhibition of human IGROV1 cells after 48 hrs by SRB protein assay; conditions: IGROV-1, 48 h
[8] = system: CCRF-CEM; experiment: Growth inhibition of human CCRF-CEM cells after 48 hrs by SRB protein assay
[9] = system: SW-620; experiment: Growth inhibition of human SW620 cells after 48 hrs by SRB protein assay; conditions: SW-620, 48 h
[10] = system: BT-549; experiment: Growth inhibition of human BT549 cells after 48 hrs by SRB protein assay; conditions: BT-549, 48 h
[11] = system: NCI-H460; experiment: Anticancer activity against human NCI-H460 cells assessed as growth of cells at 100 uM relative to untreated cells
[12] = system: SF-268; experiment: Anticancer activity against human SF268 cells assessed as growth of cells at 100 uM relative to untreated cells
[13] = system: K562; experiment: Growth inhibition of human K562 cells after 48 hrs by SRB protein assay; conditions: K562, 48 h
[14] = system: MOLT-4; experiment: Growth inhibition of human MOLT4 cells after 48 hrs by SRB protein assay; conditions: MOLT-4, 48 h
[15] = system: HOP-62; experiment: Growth inhibition of human HOP62 cells after 48 hrs by SRB protein assay; conditions: HOP-62, 48 h
[16] = system: HOP-92; experiment: Growth inhibition of human HOP92 cells after 48 hrs by SRB protein assay; conditions: HOP-92, 48 h
[17] = system: NCI-H322M; experiment: Growth inhibition of human NCI-H322M cells after 48 hrs by SRB protein assay
[18] = system: NCI-H460; experiment: Growth inhibition of human NCI-H460 cells after 48 hrs by SRB protein assay; conditions: NCI-H460, 48 h
[19] = system: NCI-H522; experiment: Growth inhibition of human NCI-H522 cells after 48 hrs by SRB protein assay; conditions: NCI-H522, 48 h
[20] = system: COLO 205; experiment: Growth inhibition of human COLO205 cells after 48 hrs by SRB protein assay; conditions: COLO 205, 48 h
[21] = system: HCT-116; experiment: Growth inhibition of human HCT116 cells after 48 hrs by SRB protein assay; conditions: HCT-116, 48 h
[22] = system: HCT-15; experiment: Growth inhibition of human HCT15 cells after 48 hrs by SRB protein assay; conditions: HCT-15, 48 h
[23] = system: HT-29; experiment: Growth inhibition of human HT29 cells after 48 hrs by SRB protein assay; conditions: HT-29, 48 h
[24] = system: KM12; experiment: Growth inhibition of human KM12 cells after 48 hrs by SRB protein assay; conditions: KM12, 48 h
[25] = system: U-251; experiment: Growth inhibition of human U251 cells after 48 hrs by SRB protein assay; conditions: U-251, 48 h
[26] = system: LOX IMVI; experiment: Growth inhibition of human LOX IMVI cells after 48 hrs by SRB protein assay
[27] = Growth inhibition of human MALME 3M cells after 48 hrs by SRB protein assay
[28] = system: M14; experiment: Growth inhibition of human M14 cells after 48 hrs by SRB protein assay; conditions: M14, 48 h
[29] = system: SK-MEL-2; experiment: Growth inhibition of human SK-MEL-2 cells after 48 hrs by SRB protein assay; conditions: SK-MEL-2, 48 h
[30] = system: SK-MEL-28; experiment: Growth inhibition of human SK-MEL-28 cells after 48 hrs by SRB protein assay; conditions: SK-MEL-28, 48 h
[31] = system: SK-MEL-5; experiment: Growth inhibition of human SK-MEL-5 cells after 48 hrs by SRB protein assay; conditions: SK-MEL-5, 48 h
[32] = system: UACC-257; experiment: Growth inhibition of human UACC257 cells after 48 hrs by SRB protein assay; conditions: UACC-257, 48 h
[33] = system: UACC-62; experiment: Growth inhibition of human UACC62 cells after 48 hrs by SRB protein assay; conditions: UACC-62, 48 h
[34] = system: RXF 393; experiment: Growth inhibition of human RXF393 cells after 48 hrs by SRB protein assay; conditions: RXF 393, 48 h
[35] = system: TK-10; experiment: Growth inhibition of human TK10 cells after 48 hrs by SRB protein assay; conditions: TK-10, 48 h
[36] = system: UO-31; experiment: Growth inhibition of human UO31 cells after 48 hrs by SRB protein assay; conditions: UO-31, 48 h
[37] = system: PC-3; experiment: Growth inhibition of human PC3 cells after 48 hrs by SRB protein assay; conditions: PC-3, 48 h
[38] = system: MCF7; experiment: Growth inhibition of human MCF7 cells after 48 hrs by SRB protein assay; conditions: MCF7, 48 h
[39] = system: NCI/ADR-RES; experiment: Growth inhibition of human NCI/ADR-RES cells after 48 hrs by SRB protein assay
[40] = system: MDA-MB-435; experiment: Growth inhibition of human MDA-MB-435 cells after 48 hrs by SRB protein assay; conditions: MDA-MB-435, 48 h

## O=C(CC1Sc2ncnn2C1=O)Nc1ccc(Br)cc1 (stereo not drawn)
[1]
  GI50: 31.6 µM
[1]; read-out: Log TGI (converted)
  TGI: > 100 µM
[2]
  GI50: 16.2 µM
[2]; read-out: Log TGI (converted)
  TGI: 29.5 µM
[3]
  GI50: > 100 µM
[3]; read-out: Log TGI (converted)
  TGI: > 100 µM
[4]
  GI50: 16.6 µM
[4]; read-out: Log TGI (converted)
  TGI: 30.2 µM
[5]
  GI50: 15.1 µM
[5]; read-out: Log TGI (converted)
  TGI: 28.2 µM
[6]
  GI50: 35.5 µM
[6]; read-out: Log TGI (converted)
  TGI: > 100 µM
[7]
  GI50: 34.7 µM
[7]; read-out: Log TGI (converted)
  TGI: > 100 µM
[8]
  GI50: 21.4 µM
[8]; read-out: Log TGI (converted)
  TGI: 55 µM
[9]
  GI50: 44.7 µM
[9]; read-out: Log TGI (converted)
  TGI: > 100 µM
[10]
  GI50: > 100 µM
[10]; read-out: Log TGI (converted)
  TGI: > 100 µM
[11]
  Activity: 0%
[12]
  Activity: 100%
[13]
  GI50: 26.3 µM
[13]; read-out: Log TGI (converted)
  TGI: 79.4 µM
[14]
  GI50: 25.1 µM
[14]; read-out: Log TGI (converted)
  TGI: 97.7 µM
[15]
  GI50: > 100 µM
[15]; read-out: Log TGI (converted)
  TGI: > 100 µM
[16]
  GI50: 22.4 µM
[16]; read-out: Log TGI (converted)
  TGI: 49 µM
[17]
  GI50: > 100 µM
[17]; read-out: Log TGI (converted)
  TGI: > 100 µM
[18]
  GI50: > 100 µM
[18]; read-out: Log TGI (converted)
  TGI: > 100 µM
[19]
  GI50: 20.4 µM
[19]; read-out: Log TGI (converted)
  TGI: 57.5 µM
[20]
  GI50: 17.8 µM
[20]; read-out: Log TGI (converted)
  TGI: 37.2 µM
[21]
  GI50: 15.8 µM
[21]; read-out: Log TGI (converted)
  TGI: 29.5 µM
[22]
  GI50: 14.8 µM
[22]; read-out: Log TGI (converted)
  TGI: 28.2 µM
[23]
  GI50: 28.2 µM
[23]; read-out: Log TGI (converted)
  TGI: > 100 µM
[24]
  GI50: > 100 µM
[24]; read-out: Log TGI (converted)
  TGI: > 100 µM
[25]
  GI50: 16.6 µM
[25]; read-out: Log TGI (converted)
  TGI: 31.6 µM
[26]
  GI50: 16.2 µM
[26]; read-out: Log TGI (converted)
  TGI: 31.6 µM
[27]
  GI50: 14.5 µM
[27]; read-out: Log TGI (converted)
  TGI: 31.6 µM
[28]
  GI50: 15.8 µM
[28]; read-out: Log TGI (converted)
  TGI: 29.5 µM
[29]
  GI50: 66.1 µM
[29]; read-out: Log TGI (converted)
  TGI: > 100 µM
[30]
  GI50: 23.4 µM
[30]; read-out: Log TGI (converted)
  TGI: 70.8 µM
[31]
  GI50: 18.6 µM
[31]; read-out: Log TGI (converted)
  TGI: 38.9 µM
[32]
  GI50: 17.4 µM
[32]; read-out: Log TGI (converted)
  TGI: 33.1 µM
[33]
  GI50: > 100 µM
[33]; read-out: Log TGI (converted)
  TGI: > 100 µM
[34]
  GI50: 12.9 µM
[34]; read-out: Log TGI (converted)
  TGI: 31.6 µM
[35]
  GI50: 17.4 µM
[35]; read-out: Log TGI (converted)
  TGI: 31.6 µM
[36]
  GI50: 18.6 µM
[36]; read-out: Log TGI (converted)
  TGI: 38 µM
[37]
  GI50: 26.9 µM
[37]; read-out: Log TGI (converted)
  TGI: 95.5 µM
[38]
  GI50: 26.9 µM
[38]; read-out: Log TGI (converted)
  TGI: 74.1 µM
[39]
  GI50: 25.1 µM
[39]; read-out: Log TGI (converted)
  TGI: 70.8 µM
[40]
  GI50: 31.6 µM
[40]; read-out: Log TGI (converted)
  TGI: > 100 µM
